For the experiment, the system named is A/NJ/15/2007 (H1N1-H274Y). Type of experiment: cell-based, influenza.

In brackets after ≈: the same amount, converted by molar mass.

On to `Nc1ncnc2c([C@@H]3N[C@H](CO)[C@@H](O)[C@H]3O)c[nH]c12` [Compound 1, (2S,3S,4R,5R)-2-(4-Amino-5H-pyrrolo[3,2-d]pyrimidin-7-yl)-5-(hydroxymethyl) pyrrolidine-3,4-diol], for which the EC50 came out at 1.39 µg/mL (≈ 5.24 µM).

As a reminder, the EC50 is the midpoint of the concentration-response curve.

Values taken from patent US12508266B2 (priority 2010, dated 2025).
